Non-standard residues stand in square brackets, D forms with d. Residues, ends and D or L forms follow the SMILES beside them. sY = N[C@@H](Cc1ccc(OS(=O)(=O)O)cc1)C(=O)O; 2Nal = N[C@@H](Cc1ccc2ccccc2c1)C(=O)O; Cha = N[C@@H](CC1CCCCC1)C(=O)O

This data set has as its target Human neutral metalloendopeptidase (Homo sapiens, UniProt P08473). Briefly: Degradation by human neutral metalloendopeptidase (HPLC). The conditions noted are these: for % Degradation by Heights: 37° C., tris-HCl pH 7.6; for No. of Peaks: HPLC. The data set is classed as in vitro ADME. On the procedure: Human neutral metalloendopeptidase (0.01 mg) and 5 nmol of peptide were incubated in […] tris-HCl buffer (pH 7.6) and at 37° C. for varying periods of time. The degradation of the peptide was monitored by analytical HPLC on a 5 micron Adsorbosphere-ODS column with 0-50% CH3 CN gradient in 0.1N potassium phosphate buffer, pH 3.0, with UV detection at 210 nm. Rates are based on presumed production of Asp-Tyr(SO3 H)-Met-Gly for CCK-8 and Ac-Tyr(SO3 H)-Met-Gly for the compound of example 73.

Human neutral metalloendopeptidase, sequence (P08473 whole entry): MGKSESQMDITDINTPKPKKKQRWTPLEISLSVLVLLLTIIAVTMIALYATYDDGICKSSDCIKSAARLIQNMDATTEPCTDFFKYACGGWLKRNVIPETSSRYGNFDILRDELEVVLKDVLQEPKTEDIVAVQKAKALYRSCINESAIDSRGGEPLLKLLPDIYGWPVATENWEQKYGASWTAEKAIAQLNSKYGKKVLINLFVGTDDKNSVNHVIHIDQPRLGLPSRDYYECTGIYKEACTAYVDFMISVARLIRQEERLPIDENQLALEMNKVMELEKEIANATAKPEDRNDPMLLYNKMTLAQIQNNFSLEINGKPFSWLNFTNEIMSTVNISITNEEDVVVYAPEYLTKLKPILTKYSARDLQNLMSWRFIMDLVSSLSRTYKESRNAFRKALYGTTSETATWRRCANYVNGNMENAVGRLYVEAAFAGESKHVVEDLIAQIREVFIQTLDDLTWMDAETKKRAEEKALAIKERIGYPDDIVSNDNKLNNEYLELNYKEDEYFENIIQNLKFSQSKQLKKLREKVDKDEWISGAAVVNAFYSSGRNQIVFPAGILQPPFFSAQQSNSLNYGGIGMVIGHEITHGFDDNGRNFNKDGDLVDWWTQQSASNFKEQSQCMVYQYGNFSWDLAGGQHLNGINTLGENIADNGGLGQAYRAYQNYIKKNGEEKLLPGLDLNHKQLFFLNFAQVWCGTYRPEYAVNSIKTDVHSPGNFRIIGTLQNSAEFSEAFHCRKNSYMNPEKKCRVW

`CSCC[C@H](NC(=O)[C@H](Cc1ccc(OS(=O)(=O)O)cc1)NC(=O)[C@@H](N)CC(=O)O)C(=O)NCC(=O)N[C@@H](Cc1c[nH]c2ccccc12)C(=O)N[C@@H](CCSC)C(=O)N[C@@H](CC(=O)O)C(=O)N[C@@H](Cc1ccccc1)C(N)=O` [CCK-8, Asp^26 -Tyr-(SO3 H)^27 -Met^28 -Gly^29 -Trp^30 -Met^31 -Asp^32 -Phe^33 -NH2]: the “% Degradation by Heights” value amounted to 0% (time of incubation 0 min), 6.2% (time of incubation 15 min), 33.2% (time of incubation 30 min) and 69.7% (time of incubation 60 min). The “No. of Peaks” value (time of incubation 60 min) is 4.
Turning to `CSCC[C@H](NC(=O)[C@H](Cc1ccc(OS(=O)(=O)O)cc1)NC(C)=O)C(=O)NCC(=O)N[C@@H](Cc1ccc2ccccc2c1)C(=O)N[C@@H](CCSC)C(=O)N[C@@H](CC(=O)O)C(=O)N[C@@H](CC1CCCCC1)C(N)=O` [Example 73, Ac-Tyr(SO3 H)-Met-Gly-(2)Nal-Met-Asp-Cyclohexylalanine-NH2] (Ac-[sY]MG[2Nal]MD[Cha]-NH2), the “% Degradation by Heights” value (time of incubation 0 min) was 0%, the “% Degradation by Heights” value (time of incubation 60 min) is reported as 10.0%, the “% Degradation by Heights” value (time of incubation 120 min) is listed as 27.0% and the “% Degradation by Heights” value (time of incubation 240 min) is recorded as 56.4%. For the same molecule, the “No. of Peaks” value (time of incubation 240 min, one peak detected and one peak that coeluted with substrate) was found to be 2.

Source of the values: patent US5128448A, “CCK analogs with appetite regulating activity” (Hoffman-La Roche Inc., priority 1990, dated 1992).
